According to ChEMBL document CHEMBL3797128, “N,N-Disubstituted thiourea and urea derivatives: design, synthesis, docking studies and biological evaluation against nitric oxide synthase” (Medchemcomm, 2016):
Activity calls are given as the source filed them. The calls are words filed in the database; no cut-off is given here.

What was measured:
[1] = molecular target: Nitric oxide synthase, inducible (Homo sapiens) (UniProt P35228); experiment: Inhibition of recombinant N-terminal His-tagged human iNOS expressed in Escherichia coli assessed as L-[3H]-citrulline formation at 1 mM using L-[3H]-arginine as substrate after 30 mins by liquid scintillation spectroscopy
Target sequence in this assay (P35228 whole entry): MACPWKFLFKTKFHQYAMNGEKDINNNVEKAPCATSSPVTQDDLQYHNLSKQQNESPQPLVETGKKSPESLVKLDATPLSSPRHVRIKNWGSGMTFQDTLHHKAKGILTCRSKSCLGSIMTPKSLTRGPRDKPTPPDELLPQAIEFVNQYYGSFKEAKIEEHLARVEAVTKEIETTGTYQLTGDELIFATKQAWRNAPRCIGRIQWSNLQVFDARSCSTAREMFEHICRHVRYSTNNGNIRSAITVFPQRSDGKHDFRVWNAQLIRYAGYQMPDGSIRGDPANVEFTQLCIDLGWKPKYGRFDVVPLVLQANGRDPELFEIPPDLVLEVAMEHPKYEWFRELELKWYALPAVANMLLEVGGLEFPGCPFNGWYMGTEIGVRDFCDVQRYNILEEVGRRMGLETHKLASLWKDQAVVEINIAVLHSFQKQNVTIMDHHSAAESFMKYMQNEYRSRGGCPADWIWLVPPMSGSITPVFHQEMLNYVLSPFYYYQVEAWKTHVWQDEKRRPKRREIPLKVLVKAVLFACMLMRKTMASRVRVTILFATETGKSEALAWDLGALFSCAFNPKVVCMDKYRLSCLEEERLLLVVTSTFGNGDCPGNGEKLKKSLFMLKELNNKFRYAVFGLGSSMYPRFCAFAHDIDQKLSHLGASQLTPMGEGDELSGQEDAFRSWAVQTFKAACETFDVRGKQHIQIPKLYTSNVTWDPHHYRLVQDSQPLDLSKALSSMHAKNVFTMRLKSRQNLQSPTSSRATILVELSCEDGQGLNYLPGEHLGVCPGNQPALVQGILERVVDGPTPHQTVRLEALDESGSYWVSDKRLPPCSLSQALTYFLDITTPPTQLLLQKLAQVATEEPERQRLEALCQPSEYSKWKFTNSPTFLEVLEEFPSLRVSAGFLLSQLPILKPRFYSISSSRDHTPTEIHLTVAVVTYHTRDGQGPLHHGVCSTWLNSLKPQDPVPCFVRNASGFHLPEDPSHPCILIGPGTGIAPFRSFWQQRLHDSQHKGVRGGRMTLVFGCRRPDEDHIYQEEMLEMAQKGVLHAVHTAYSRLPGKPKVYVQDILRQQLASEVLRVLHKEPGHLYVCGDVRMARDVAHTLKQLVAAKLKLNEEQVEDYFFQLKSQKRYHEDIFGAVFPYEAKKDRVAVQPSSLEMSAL

[2] = molecular target: Nitric oxide synthase, brain (Homo sapiens) (UniProt P29475); experiment: Inhibition of recombinant N-terminal His-tagged human nNOS expressed in Escherichia coli assessed as L-[3H]-citrulline formation using L-[3H]-arginine as substrate after 30 mins by liquid scintillation spectroscopy
Chain of Nitric oxide synthase, brain (Homo sapiens) (P29475 whole entry, looked up): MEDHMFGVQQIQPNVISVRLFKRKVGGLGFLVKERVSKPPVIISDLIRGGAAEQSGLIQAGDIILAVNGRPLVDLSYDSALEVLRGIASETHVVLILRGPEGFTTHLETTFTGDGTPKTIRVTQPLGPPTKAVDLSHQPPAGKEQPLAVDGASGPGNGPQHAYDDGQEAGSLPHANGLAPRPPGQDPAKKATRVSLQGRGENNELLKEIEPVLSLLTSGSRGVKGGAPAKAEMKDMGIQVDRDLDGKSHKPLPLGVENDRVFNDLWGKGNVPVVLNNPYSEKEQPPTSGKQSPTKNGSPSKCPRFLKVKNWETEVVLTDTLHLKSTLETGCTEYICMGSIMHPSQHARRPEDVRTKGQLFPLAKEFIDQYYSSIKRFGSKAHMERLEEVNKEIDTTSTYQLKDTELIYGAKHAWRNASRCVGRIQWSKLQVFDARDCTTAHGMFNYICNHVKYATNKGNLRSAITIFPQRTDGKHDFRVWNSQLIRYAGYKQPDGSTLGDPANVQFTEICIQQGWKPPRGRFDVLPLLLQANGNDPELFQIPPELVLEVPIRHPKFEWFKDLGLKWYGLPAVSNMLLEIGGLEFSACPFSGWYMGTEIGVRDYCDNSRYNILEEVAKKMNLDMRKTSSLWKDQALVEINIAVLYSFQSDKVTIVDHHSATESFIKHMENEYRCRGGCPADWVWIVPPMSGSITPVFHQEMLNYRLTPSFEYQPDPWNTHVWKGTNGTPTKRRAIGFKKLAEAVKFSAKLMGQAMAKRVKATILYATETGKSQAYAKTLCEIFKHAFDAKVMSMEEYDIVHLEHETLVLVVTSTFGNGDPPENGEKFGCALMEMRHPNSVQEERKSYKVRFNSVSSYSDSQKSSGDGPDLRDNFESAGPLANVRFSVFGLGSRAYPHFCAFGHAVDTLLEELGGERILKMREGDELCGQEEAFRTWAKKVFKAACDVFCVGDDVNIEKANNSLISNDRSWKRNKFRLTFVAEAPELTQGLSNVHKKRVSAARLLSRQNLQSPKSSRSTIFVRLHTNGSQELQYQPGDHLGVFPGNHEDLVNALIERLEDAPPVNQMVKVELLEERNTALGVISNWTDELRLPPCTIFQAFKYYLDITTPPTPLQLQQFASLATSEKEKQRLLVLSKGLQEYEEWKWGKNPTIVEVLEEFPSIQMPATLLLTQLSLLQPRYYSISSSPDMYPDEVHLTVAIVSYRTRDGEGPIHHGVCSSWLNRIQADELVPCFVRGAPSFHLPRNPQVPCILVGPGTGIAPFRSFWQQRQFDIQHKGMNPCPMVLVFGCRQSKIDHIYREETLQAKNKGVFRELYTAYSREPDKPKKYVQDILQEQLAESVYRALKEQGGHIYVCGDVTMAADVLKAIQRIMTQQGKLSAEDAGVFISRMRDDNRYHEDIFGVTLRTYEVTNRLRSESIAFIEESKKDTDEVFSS

[3] = molecular target: Nitric oxide synthase 1 (Homo sapiens) (UniProt P29475); experiment: Inhibition of recombinant nNOS (unknown origin) assessed as L-[3H]-citrulline formation at 1 mM using L-[3H]-arginine as substrate after 30 mins by liquid scintillation spectroscopy
Chain of Nitric oxide synthase 1 (Homo sapiens) (P29475 whole entry): as the sequence (P29475 whole entry, looked up) above

[4] = molecular target: Nitric oxide synthase, inducible (Homo sapiens) (UniProt P35228); experiment: Inhibition of recombinant iNOS (unknown origin) assessed as L-[3H]-citrulline formation using L-[3H]-arginine as substrate after 30 mins by liquid scintillation spectroscopy
Target sequence in this assay (P35228 whole entry, looked up): as the sequence (P35228 whole entry) above

[5] = molecular target: T1, Nitric oxide synthase 3 (Rattus norvegicus) (UniProt Q62600); experiment: Inhibition of eNOS in Wistar rat aortic rings assessed as suppression of acetylcholine evoked endothelial dependent relaxation of precontracted aortic rings at 100 umol/l after 30 mins
T1 sequence (whole entry): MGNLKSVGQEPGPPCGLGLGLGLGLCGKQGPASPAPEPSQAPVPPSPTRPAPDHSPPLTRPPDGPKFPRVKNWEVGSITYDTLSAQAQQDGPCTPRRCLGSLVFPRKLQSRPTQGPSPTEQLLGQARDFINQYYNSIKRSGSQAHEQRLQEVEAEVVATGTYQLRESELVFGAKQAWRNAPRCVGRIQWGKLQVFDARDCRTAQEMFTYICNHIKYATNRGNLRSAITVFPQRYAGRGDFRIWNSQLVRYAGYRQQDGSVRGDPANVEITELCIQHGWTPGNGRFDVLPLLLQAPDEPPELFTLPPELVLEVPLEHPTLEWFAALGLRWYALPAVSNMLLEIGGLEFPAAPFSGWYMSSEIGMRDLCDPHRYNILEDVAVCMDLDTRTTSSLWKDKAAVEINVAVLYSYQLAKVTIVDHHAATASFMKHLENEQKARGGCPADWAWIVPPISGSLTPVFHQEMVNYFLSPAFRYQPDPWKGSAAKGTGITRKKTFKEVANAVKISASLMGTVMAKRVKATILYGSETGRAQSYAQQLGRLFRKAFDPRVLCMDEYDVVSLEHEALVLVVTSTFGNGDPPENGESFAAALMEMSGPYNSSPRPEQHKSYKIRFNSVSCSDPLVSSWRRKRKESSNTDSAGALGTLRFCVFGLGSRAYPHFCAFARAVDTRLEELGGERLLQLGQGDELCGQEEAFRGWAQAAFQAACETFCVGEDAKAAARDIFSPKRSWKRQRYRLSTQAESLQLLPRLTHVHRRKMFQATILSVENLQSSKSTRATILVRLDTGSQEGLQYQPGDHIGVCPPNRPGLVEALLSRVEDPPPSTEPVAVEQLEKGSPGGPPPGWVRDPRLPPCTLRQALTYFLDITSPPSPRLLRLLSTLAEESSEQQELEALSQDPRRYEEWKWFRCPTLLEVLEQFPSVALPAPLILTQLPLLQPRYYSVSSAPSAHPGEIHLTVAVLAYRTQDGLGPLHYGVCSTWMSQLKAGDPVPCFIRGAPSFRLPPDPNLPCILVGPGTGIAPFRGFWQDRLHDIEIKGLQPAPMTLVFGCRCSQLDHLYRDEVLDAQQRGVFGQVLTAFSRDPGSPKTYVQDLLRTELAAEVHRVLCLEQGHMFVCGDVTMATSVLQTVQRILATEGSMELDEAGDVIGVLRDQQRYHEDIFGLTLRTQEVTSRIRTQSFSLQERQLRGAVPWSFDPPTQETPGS

[6] = molecular target: T1, Nitric oxide synthase 3 (Rattus norvegicus); experiment: Inhibition of eNOS in Wistar rat aortic rings assessed as effect on acetylcholine evoked endothelial dependent relaxation of precontracted aortic rings at 100 umol/l after 30 mins
[7] = molecular target: T2, Nitric oxide synthase 3 (Homo sapiens) (UniProt P29474); experiment: Inhibition of eNOS in HUVEC cells assessed as A23187 stimulated nitric oxide production at 100 umol/L preincubated for 30 mins using L-arginine as substrate for 5 mins followed A23187 addition measured after 30 mins by DAF2 dye based spectrofluorimetry; format: cell-based
T2 sequence (whole entry): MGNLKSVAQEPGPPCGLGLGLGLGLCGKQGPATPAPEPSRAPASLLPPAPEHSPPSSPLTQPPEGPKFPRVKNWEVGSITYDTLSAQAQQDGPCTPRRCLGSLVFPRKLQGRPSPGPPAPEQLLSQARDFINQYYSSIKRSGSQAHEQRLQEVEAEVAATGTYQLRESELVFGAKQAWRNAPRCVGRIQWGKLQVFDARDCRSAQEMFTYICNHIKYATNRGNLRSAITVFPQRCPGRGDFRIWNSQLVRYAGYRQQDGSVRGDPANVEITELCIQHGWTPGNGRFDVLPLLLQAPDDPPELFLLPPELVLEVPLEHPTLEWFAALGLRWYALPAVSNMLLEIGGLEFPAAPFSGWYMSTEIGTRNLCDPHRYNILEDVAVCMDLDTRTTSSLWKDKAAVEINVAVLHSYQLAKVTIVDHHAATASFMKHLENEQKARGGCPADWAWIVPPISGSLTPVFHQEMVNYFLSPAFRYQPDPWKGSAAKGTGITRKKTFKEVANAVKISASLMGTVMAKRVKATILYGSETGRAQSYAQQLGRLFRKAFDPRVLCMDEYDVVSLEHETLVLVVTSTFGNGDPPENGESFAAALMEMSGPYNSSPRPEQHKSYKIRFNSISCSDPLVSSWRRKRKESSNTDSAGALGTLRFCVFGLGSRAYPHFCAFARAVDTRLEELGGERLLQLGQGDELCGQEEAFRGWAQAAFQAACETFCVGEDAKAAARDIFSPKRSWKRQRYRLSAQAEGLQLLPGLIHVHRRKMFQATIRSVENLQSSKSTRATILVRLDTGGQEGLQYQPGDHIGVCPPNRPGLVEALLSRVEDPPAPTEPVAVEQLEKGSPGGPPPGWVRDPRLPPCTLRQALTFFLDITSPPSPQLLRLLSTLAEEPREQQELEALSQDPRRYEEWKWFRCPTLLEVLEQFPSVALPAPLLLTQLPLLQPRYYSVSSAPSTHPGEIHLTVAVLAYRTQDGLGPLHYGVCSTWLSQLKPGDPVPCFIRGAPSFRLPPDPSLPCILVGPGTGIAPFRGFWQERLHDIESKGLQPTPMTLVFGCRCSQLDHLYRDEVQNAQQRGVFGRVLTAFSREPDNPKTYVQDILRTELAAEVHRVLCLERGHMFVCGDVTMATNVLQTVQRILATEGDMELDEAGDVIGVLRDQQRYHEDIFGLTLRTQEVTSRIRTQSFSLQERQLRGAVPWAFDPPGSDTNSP

HUVEC = experiment: Cytotoxicity against HUVEC cells assessed as reduction in cell viability at >1 mM after 30 mins by MTT assay; format: cell-based; details: human, 0.5 h

Row | SMILES | inhibition [1] [%] | inhibition [3] [%] | other results
1 | COc1ccc(N)c(C(=O)CCNC(=O)C2CCCCC2)c1 | 9.24 |  | 
2 | CCC(=O)NCCC(=O)c1cc(OC)ccc1N | 0.24 |  | 
3 | COc1ccc(N)c(C(=O)CCNC(C)=O)c1 | 30.7 |  | 
4 | CCCCC(=O)NCCC(=O)c1cc(OC)ccc1N | 14.1 |  | 
5 | Nc1ccc(Cl)cc1C(=O)CCNC(=O)C1CC1 | 5.37 |  | 
6 | COC(=O)[C@@H](N)CCCNC(=N)N[N+](=O)[O-] |  |  | inhibition [5]: Active
7 | COc1ccc(N)c(C(=O)CCNC(=O)C2CC2)c1 | 2.66 |  | 
8 | COc1ccc(N)c(C(=O)CCNC(=O)c2ccccc2)c1 | 10.9 |  | 
9 | COc1ccc(N)c(C(=O)CCNC(=O)C2CCCC2)c1 | 0.61 |  | 
10 | CNC(=S)NCCC(=O)c1cc(OC)ccc1N | 78.2 | 46 | 
11 | CCCC(=O)NCCC(=O)c1cc(OC)ccc1N | 7.35 |  | 
12 | COc1ccc(N)c(C(=O)CCNC(=O)C2CCC2)c1 | 0.01 |  | 
13 | Nc1ccc(Cl)cc1C(=O)CCNC(=O)c1ccccc1 | 26.6 |  | 

More lines, main results first:

Row | inhibition [1] [%] | inhibition [3] [%] | SMILES | other results
14 | 55 | 32.4 | CCCNC(=S)NCCC(O)c1cc(Cl)ccc1N (stereo unspecified) | IC50 [2]: > 1000 µM; IC50 [4]: 860 µM
15 | 25.4 | 6.02 | CCCNC(=S)NCCC(O)c1cc(OC)ccc1N (stereo unspecified) | 
16 | 26.6 | 43 | CCNC(=O)NCCC(O)c1cc(OC)ccc1N (stereo unspecified) | 
17 | 31.1 | 51.7 | CCCNC(=S)NCCC(O)c1ccccc1N (stereo unspecified) | IC50 [2]: 880 µM; IC50 [4]: > 1000 µM
18 | 19 | 7 | CCCNC(=O)NCCC(O)c1ccccc1N (stereo unspecified) | 
19 | 60.4 | 70.6 | CCNC(=S)NCCC(O)c1cc(Cl)ccc1N (stereo unspecified) | IC50 [2]: 770 µM; IC50 [4]: 800 µM
20 | 22.1 | 70.5 | CNC(=S)NCCC(O)c1cc(Cl)ccc1N (stereo unspecified) | IC50 [2]: 710 µM; IC50 [4]: > 1000 µM
21 | 27.9 | 17.7 | Nc1ccccc1C(O)CCNC(=O)Nc1ccccc1 (stereo unspecified) | 
22 | 18.3 | 7.81 | CCNC(=O)NCCC(O)c1ccccc1N (stereo unspecified) | 
23 | 14.7 | 15.8 | CCCNC(=O)NCCC(O)c1cc(OC)ccc1N (stereo unspecified) | 
24 | 76.5 | 80.5 | CNC(=S)NCCC(O)c1cc(OC)ccc1N (stereo unspecified) | IC50 [2]: 130 µM; inhibition [6]: inactive; IC50 [4]: 180 µM; inhibition [7]: inactive; Activity (HUVEC): 20%
25 | 12.3 | 12.1 | COc1ccc(N)c(C(O)CCNC(=O)Nc2ccccc2)c1 (stereo unspecified) | 
26 | 19.7 |  | CC(=O)NCCC(=O)c1cc(Cl)ccc1N | 
27 | 33.9 | 15.2 | CCNC(=O)NCCC(O)c1cc(Cl)ccc1N (stereo unspecified) | 
28 | 19.6 | 23.8 | CCCNC(=O)NCCC(O)c1cc(Cl)ccc1N (stereo unspecified) | 
29 | 19.4 | 44.8 | CCNC(=S)NCCC(O)c1ccccc1N (stereo unspecified) | 
30 | 20.7 | 70.2 | CNC(=S)NCCC(O)c1ccccc1N (stereo unspecified) | IC50 [2]: 350 µM; IC50 [4]: > 1000 µM
31 | 3.11 | 38.6 | Nc1ccc(Cl)cc1C(O)CCNC(=O)Nc1ccccc1 (stereo unspecified) | 
32 | 78.6 | 9.86 | CCNC(=O)NCCC(=O)c1cc(Cl)ccc1N | 
